Data reported in patent US12478616B2, “PI3K inhibitors and uses thereof” (Sloan-Kettering Institute for Cancer Research, priority 2018, dated 2025).
Like-named read-outs stand apart in the source and are kept apart here. Marks after values point to notes of the source that are not given here.

Tests used:
[1] = target: PI3Kα (Homo sapiens (Human), UniProt P42336); test: PI3Kα kinase (biochemical) assay
[2] = 60 consecutive days; BYL719 50 mg/kg/day, Fi(BYL719) 50 mg/kg/week; cited from earlier work
[3] = test system: PI3K; test: PI3K cellular assays; assay type: cell-based; set-up: key: Inactive (−); Low (+); Intermediate (++); High (+++); details: for PI3K cellular activity: Table 1
[4] = cited from earlier work
[5] = Fucoidan nanoparticle formulation, drug load and particle size; assay type: physicochemical; details: Table 1
Procedure: FIG. 13. Generation of Compound (14) Nanoparticles [Fi(Compound (14))]. An aliquot of 0.1 mL of Compound (14) dissolved in dimethyl sulfoxide (25 mg/mL) was added drop-wise ([…]) to a 0.6 mL aqueous polysaccharide solution (15 mg/mL) containing IR820 (2.5 mg/mL) and 0.05 mM sodium bicarbonate. An aliquot of 0.1 mL of 8-arm PEG-amine dissolved in water (Creative Peg Works, 20 kD, 5 mg/mL) was added drop-wise to the mixture followed by centrifugation (20,000 g, 30 min). The nanoparticle pellet was re-suspended in 1 mL of sterile PBS. The suspension was sonicated for 10 s with a probe tip ultrasonicator at 40% intensity (Sonics inc). The nanoparticles were lyophilized in a 5% saline/sucrose solution.
Nanoformulated Compound (14) [Fi(Compound (14))] was typically prepared as illustrated in FIG. 13 by adding a DMSO solution dropwise to an aqueous polysaccharide solution containing the near-IR dye IR820. This was followed by the addition of an aqueous solution containing 20 kD, 8-arm PEG-amine, centrifugation and ultra-sonication yielding nanoparticles (<200 nm) with good batch consistency (FIG. 14). […]
Importantly, each of these 3 new derivatives shown in Table 8 were successfully encapsulated in fucoidan polysaccharide nanoparticles. Following nanoformulation, the drug loading in the nanoparticle for each analog was determined.

[6] = rat, BYL719 dose 3.4 mg/kg IV, cited from earlier work
[7] = healthy mice, single dose, BYL719 25 or 50 mg/kg, Fi(BYL719) 25 mg/kg, cited from earlier work
[8] = test system: Cal-33 xenografts; details: Fi(BYL719) 25 mg/kg twice a week; free BYL719 7 mg/kg/day (50 mg/kg/week); cited from earlier work
[9] = test system: S6 ribosomal protein (S6) phosphorylation; details: single administration; free BYL719 oral, Fi(BYL719) 25 mg/kg; up to 24 hours; cited from earlier work
[10] = Mouse pharmacokinetics, cassette dosed free drug; assay type: in vivo; details: for MRTiv / BA / MRTpo / Tmax / AUC / concentration at 5 min / clearance / Vd / Cmax: cassette; for concentration at 5 min: read-out: C5min; for clearance: read-out: Cltotal (converted); for Vd: read-out: VDss
Text: (§1) Mouse PK data for Compound (14) (cassette dosing) for free drug (i.e., not nanoformulated) is tabulated in Table 2 using amorphous material. […] The corresponding rat PK data is tabulated in Table 3, where the results are consistent with mouse PK data.

[11] = test system: H22 patient-derived xenografts; details: Fi(BYL719) 25 mg/kg twice a week; free BYL719 7 mg/kg/day (50 mg/kg/week); cited from earlier work
[12] = Rat pharmacokinetics, cassette dosed free Compound (14); assay type: in vivo
Text: as §1

[13] = test system: ERK phosphorylation; details: cited from earlier work
[14] = test system: B16F10 melanoma lung metastases; details: FiDOX 1, 5 and 30 mg/kg; free doxorubicin 6 mg/kg; cited from earlier work
[15] = Table 4, pyridine-modified inhibitors, read-out: PI3Kα (IC50)
[16] = IV 0.1 mg/kg, 1 mL/kg (10-in-One)
[17] = in vivo, IV 0.1 mg/kg, 1 mL/kg (10-in-One), read-out: AUCiv
[18] = in vivo, IV 0.1 mg/kg, 1 mL/kg (10-in-One)
[19] = in vivo, PO 1 mg/kg, 5 mL/kg (5-in-One)
[20] = in vivo, PO 1 mg/kg, 5 mL/kg (5-in-One), read-out: AUCpo
[21] = Table 5, pyrone inhibitors, read-out: PI3Kα (IC50)
[22] = Table 6, proline-modified inhibitors, read-out: PI3Kα (IC50)

Sequence of PI3Kα (P42336 whole entry): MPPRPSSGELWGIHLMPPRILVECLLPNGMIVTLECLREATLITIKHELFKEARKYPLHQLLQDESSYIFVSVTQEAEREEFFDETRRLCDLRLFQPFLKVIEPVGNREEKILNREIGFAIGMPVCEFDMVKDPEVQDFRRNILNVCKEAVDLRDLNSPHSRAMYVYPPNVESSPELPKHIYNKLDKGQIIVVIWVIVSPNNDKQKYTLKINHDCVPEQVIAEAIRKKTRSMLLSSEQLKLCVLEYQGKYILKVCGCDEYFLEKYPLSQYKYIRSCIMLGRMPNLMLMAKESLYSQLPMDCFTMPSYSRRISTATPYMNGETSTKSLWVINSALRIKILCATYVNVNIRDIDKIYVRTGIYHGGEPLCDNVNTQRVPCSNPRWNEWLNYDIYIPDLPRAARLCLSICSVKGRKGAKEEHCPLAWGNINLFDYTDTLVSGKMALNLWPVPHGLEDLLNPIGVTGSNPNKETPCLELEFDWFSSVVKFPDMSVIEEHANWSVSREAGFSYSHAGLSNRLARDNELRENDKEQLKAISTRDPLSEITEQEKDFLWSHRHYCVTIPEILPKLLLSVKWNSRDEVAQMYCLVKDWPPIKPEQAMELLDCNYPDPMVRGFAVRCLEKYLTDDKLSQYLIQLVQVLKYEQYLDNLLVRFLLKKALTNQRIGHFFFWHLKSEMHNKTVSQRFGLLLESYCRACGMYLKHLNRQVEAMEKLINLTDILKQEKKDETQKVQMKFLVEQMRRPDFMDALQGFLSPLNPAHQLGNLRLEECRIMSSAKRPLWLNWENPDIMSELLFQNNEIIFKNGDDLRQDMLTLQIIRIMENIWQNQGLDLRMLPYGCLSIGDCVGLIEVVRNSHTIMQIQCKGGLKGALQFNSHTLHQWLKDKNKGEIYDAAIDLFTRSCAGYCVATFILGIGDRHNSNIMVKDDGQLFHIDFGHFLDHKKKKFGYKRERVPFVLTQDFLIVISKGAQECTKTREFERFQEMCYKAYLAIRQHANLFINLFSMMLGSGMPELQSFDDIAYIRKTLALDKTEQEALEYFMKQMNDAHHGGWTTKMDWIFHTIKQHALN
Sequence of PI3Kα (P27986 whole entry partner): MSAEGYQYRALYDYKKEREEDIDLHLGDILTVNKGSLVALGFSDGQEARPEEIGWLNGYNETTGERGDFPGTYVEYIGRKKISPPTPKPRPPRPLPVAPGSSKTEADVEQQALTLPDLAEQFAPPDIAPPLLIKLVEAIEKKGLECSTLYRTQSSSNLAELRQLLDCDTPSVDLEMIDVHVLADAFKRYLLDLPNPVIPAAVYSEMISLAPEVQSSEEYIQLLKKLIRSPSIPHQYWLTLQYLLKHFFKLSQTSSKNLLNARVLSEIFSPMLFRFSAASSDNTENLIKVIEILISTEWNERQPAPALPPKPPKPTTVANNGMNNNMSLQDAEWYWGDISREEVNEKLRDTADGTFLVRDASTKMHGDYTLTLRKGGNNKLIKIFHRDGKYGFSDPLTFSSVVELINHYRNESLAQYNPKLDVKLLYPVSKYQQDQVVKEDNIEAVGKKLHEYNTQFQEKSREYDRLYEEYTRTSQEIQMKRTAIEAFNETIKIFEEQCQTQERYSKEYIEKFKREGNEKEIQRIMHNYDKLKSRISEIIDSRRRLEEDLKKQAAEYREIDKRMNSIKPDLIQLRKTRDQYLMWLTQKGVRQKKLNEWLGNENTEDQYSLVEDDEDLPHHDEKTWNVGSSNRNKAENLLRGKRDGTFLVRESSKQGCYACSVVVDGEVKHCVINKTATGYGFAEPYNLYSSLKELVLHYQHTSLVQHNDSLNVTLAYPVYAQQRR

CCOC(=O)C(C)c1cc(-c2sc(NC(=O)N3CCC[C@H]3C(N)=O)nc2C)ccn1 (mixture of isomers) [Compound (6)]
IC50 [1, 15]: < 100 nM

Cc1nc(NC(=O)N2CCC[C@H]2C(N)=O)sc1-c1ccnc(C(C)(C)C(F)(F)F)c1 [BYL719, alpelisib, reference compound]
serum glucose and insulin levels after chronic treatment [2]: Significantly elevated | PI3K cellular activity [3]: (+++)*** | observed half-life in humans [4]: 11.5 h | Nanoparticle drug load, % [5]: 22% | BA ([6]; 15 mg/kg PO): 58% | Cltotal [6]: 10 mL/min/kg | MRTiv [6]: 2.9 h | VDss [6]: 1.9 L/kg | serum glucose levels [7]: spike | serum insulin levels ([7]; within 24 hours): spike | antitumor activity in Cal-33 [8]: no appreciable antitumor activity | inhibition of S6 phosphorylation in tumor [9]: strong albeit transient inhibition | MRTiv [10, 16]: 1.12 h | BA ([10]; IV 0.1 mg/kg, PO 1 mg/kg): 71.2% | MRTpo ([10]; PO 1 mg/kg, 5 mL/kg (5-in-One)): 2.12 h | Tmax ([10]; PO 1 mg/kg, 5 mL/kg (5-in-One)): 1 h | AUC [10, 17]: 73.9 ng·h/mL | concentration at 5 min [10, 18]: 56.4 ng/mL | clearance [10, 18]: 22.9 mL/min/kg | Vd [10, 18]: 1.54 L/kg | Cmax [10, 19]: 184 ng/mL | AUC [10, 20]: 526 ng·h/mL | antitumor activity in H22 [11]: transient delay of tumor growth followed by acquired insensitivity to the treatment

Cc1nc(NC(=O)N2CCC[C@H]2C(N)=O)sc1-c1ccnc(C(C)(C)C(=O)OC2CCOC2=O)c1 (some centres unmarked) [Compound (1)]
IC50 [1, 15]: < 100 nM

CCOC(=O)CC(C)(C)c1cc(-c2sc(NC(=O)N3CCC[C@H]3C(N)=O)nc2C)ccn1 [Compound (2)]
IC50 [1, 15]: < 100 nM

Cc1nc(NC(=O)N2CCC[C@H]2C(N)=O)sc1-c1ccnc(C(C)(C)C(=O)OC(C)OC(=O)OC2CCCCC2)c1 (some centres unmarked) [Compound (3)]
IC50 [1, 15]: < 100 nM

Cc1nc(NC(=O)N2CCC[C@H]2C(N)=O)sc1-c1ccnc(C(C)(C)C(=O)OCc2oc(=O)oc2C)c1 [Compound (4)]
IC50 [1, 15]: < 100 nM

CCOC(=O)C1(c2cc(-c3sc(NC(=O)N4CCC[C@H]4C(N)=O)nc3C)ccn2)CC1 [Compound (5)]
IC50 [1, 15]: < 100 nM

Cc1nc(NC(=O)N2CCC[C@H]2C(N)=O)sc1-c1ccnc(C(C)(C)C(=O)O)c1 [Compound (7)]
IC50 [1, 15]: < 100 nM

COC(=O)C(C)(C)c1cc(-c2sc(NC(=O)N3CCC[C@H]3C(N)=O)nc2C)ccn1 [Compound (8)]
IC50 [1, 15]: < 100 nM

COC(=O)c1cc(-c2sc(NC(=O)N3CCC[C@H]3C(N)=O)nc2C)ccn1 [Compound (9)]
IC50 [1, 15]: < 100 nM

CCOC(=O)[C@@H]1CCN(C(=O)Nc2nc(C)c(-c3cc(C(C)(C)C(F)(F)F)oc(=O)c3)s2)[C@@H]1C(N)=O [Compound (10)]
PI3Kα inhibition in biochemical assay (in words) [1]: active | IC50 [1, 21]: < 100 nM

CCOC(=O)[C@@H]1C[C@@H](C(N)=O)N(C(=O)Nc2nc(C)c(-c3cc(C(C)(C)C(F)(F)F)oc(=O)c3)s2)C1 [Compound (11)]
PI3Kα inhibition in biochemical assay (in words) [1]: active | IC50 [1, 21]: < 100 nM

CCOC(=O)[C@H]1C[C@@H](C(N)=O)N(C(=O)Nc2nc(C)c(-c3cc(C(C)(C)C(F)(F)F)oc(=O)c3)s2)C1 [Compound (12)]
PI3Kα inhibition in biochemical assay (in words) [1]: active | IC50 [1, 21]: < 100 nM

Cc1nc(NC(=O)N2CCC[C@H]2C(N)=O)sc1-c1cc(C(C)C)oc(=O)c1 [Compound (13)]
IC50 [1, 21]: < 100 nM

Cc1nc(NC(=O)N2CCC[C@H]2C(N)=O)sc1-c1cc(C(C)(C)C(F)(F)F)oc(=O)c1 [Compound (14)]
efficacy in PI3K cellular assays [3]: (+++) | PI3K cellular activity [3]: (+++)*** | Nanoparticle drug load, % [5]: 22% | PI3Kα inhibition in biochemical assay (in words) [1]: potent inhibitor | IC50 ([1]; Table 1, read-out: PI3Kα (IC50)): < 100 nM | IC50 [1, 21]: < 100 nM | IC50 ([1]; refers to Table 5, read-out: PI3Kα inhibitor in biochemical assays): < 100 nM | MRTiv [12, 16]: 0.42 h | BA ([12]; IV 0.1 mg/kg, PO 1 mg/kg): 5.9% | MRTpo ([12]; PO 1 mg/kg, 5 mL/kg (5-in-One)): 2.1 h | AUC [12, 17]: 45.1 ng·h/mL | concentration at 5 min ([12]; in vivo, IV 0.1 mg/kg, 1 mL/kg (10-in-One), read-out: C5min): 114 ng/mL | clearance ([12]; in vivo, IV 0.1 mg/kg, 1 mL/kg (10-in-One), read-out: Cltotal (converted)): 37 mL/min/kg | Vd ([12]; in vivo, IV 0.1 mg/kg, 1 mL/kg (10-in-One), read-out: VDss): 0.932 L/kg | Cmax [12, 19]: 11.8 ng/mL | Tmax [12, 19]: 0.5 h | AUC [12, 20]: 26.9 ng·h/mL | mean residence time (in words) ([10]; cassette dosing, free drug): short mean residence time | oral bioavailability (in words) ([10]; cassette dosing, free drug): modest oral bioavailability | total clearance (in words) ([10]; cassette dosing, free drug): high total clearance | MRTiv [10, 16]: 0.31 h | BA ([10]; IV 0.1 mg/kg, PO 1 mg/kg): 13.5% | MRTpo ([10]; PO 1 mg/kg, 5 mL/kg (5-in-One)): 1.07 h | AUC [10, 17]: 17.8 ng·h/mL | concentration at 5 min [10, 18]: 66.4 ng/mL | clearance [10, 18]: 96.5 mL/min/kg | Vd [10, 18]: 1.78 L/kg | Cmax [10, 19]: 17.1 ng/mL | AUC [10, 20]: 24 ng·h/mL | Tmax ([10]; in vivo, PO 1 mg/kg, 5 mL/kg (5-in-One), read-out: Tmax): 0.42 h

Cc1cc(-c2sc(NC(=O)N3CCC[C@H]3C(N)=O)nc2C)cc(=O)o1 [Compound (15)]
IC50 [1, 21]: < 500 nM

CCOC(=O)[C@@H]1CCN(C(=O)Nc2nc(C)c(-c3ccnc(C(C)(C)C(F)(F)F)c3)s2)[C@@H]1C(N)=O [Compound (20)]
PI3Kα inhibition in biochemical assay (in words) [1]: good intrinsic PI3Kα potency | IC50 [1, 22]: < 100 nM

CCOC(=O)C1CC(C(N)=O)N(C(=O)Nc2nc(C)c(-c3ccnc(C(C)(C)C(F)(F)F)c3)s2)C1 (centres unmarked) [Compound (21)]
PI3Kα inhibition in biochemical assay (in words) [1]: good intrinsic PI3Kα potency | IC50 [1, 22]: < 100 nM

Cn1cnc2c(F)c(Nc3ccc(Br)cc3F)c(C(=O)NOCCO)cc21 [MEK162]
pERK inhibition in the skin ([13]; 4 and 24 hours): phosphorylation returned in both tissues after 24 hours | pERK inhibition in the tumor ([13]; after 24 hours): phosphorylation returned in both tissues after 24 hours

COc1cccc2c1C(=O)c1c(O)c3c(c(O)c1C2=O)C[C@@](O)(C(=O)CO)C[C@@H]3O[C@H]1C[C@H](N)[C@H](O)[C@H](C)O1 [doxorubicin]
tumor burden and survival after a single injection [14]: did not have a significant effect
